The target of series [1] is Cholinesterase (Equus caballus, UniProt P81908).
Description: Inhibition of equine serum butyrylcholinesterase using butyrylthiocholine chloride as substrate preincubated for 15 mins followed by substrate addition by Ellman's method
Series [2] has as its target Acetylcholinesterase (Homo sapiens, UniProt P22303). Description: Inhibition of human erythrocyte acetylcholinesterase using acetylthiocholine chloride as substrate preincubated for 15 mins followed by substrate addition by Ellman's method.
Series [3] has as its target Acetylcholinesterase (Electrophorus electricus, UniProt O42275).
Description: Inhibition of electric eel acetylcholinesterase using acetylthiocholine chloride as substrate preincubated for 15 mins followed by substrate addition by Ellman's method
Series [4] in a line: GPx-like activity of the compound using 1 mM GSH/H2O2 as substrate assessed as GSH-mediated H2O2 reduction at 80 uM at pH 7.5 measured for 10 secs by spectrophotometric analysis. In kind it is physicochemical. The conditions noted are these: pH 7.5, 10 s.
A short description of series [5]: GPx-like activity of the compound using GSH/variable H2O2 as substrate by Lineweaver-burk plot analysis. The class given is physicochemical.
The nature of series [6]: GPx-like activity of the compound using GSH/variable H2O2 as substrate assessed as catalytic efficiency by Lineweaver-burk plot analysis. The class given is physicochemical.
Series [7] can be described thus: GPx-like activity of the compound using variable GSH/H2O2 as substrate assessed as catalytic efficiency by Lineweaver-burk plot analysis. In kind it is physicochemical.
A short description of series [8]: GPx-like activity of the compound using 4 mM GSH/H2O2 as substrate assessed as GSH-mediated H2O2 reduction at 80 uM at pH 7.5 measured for 10 secs by spectrophotometric analysis. The class given is physicochemical. Particulars: pH 7.5, 10 s.
The nature of series [9]: GPx-like activity of the compound using variable GSH/H2O2 as substrate by Lineweaver-burk plot analysis. In kind it is physicochemical.
Series [10] is described as follows: Antioxidant activity assessed as H2O2 scavenging activity at 50 to 200 uM after 10 hrs by ferrous ion oxidation-xylenol orange assay. The class given is functional.
A short description of series [11]: GPx-like activity of the compound using GSH/1.4 mM H2O2 as substrate assessed as GSH-mediated H2O2 reduction at 80 uM at pH 7.5 measured for 10 secs by spectrophotometric analysis. The class given is physicochemical. Particulars: pH 7.5, 10 s.
A short description of series [12]: GPx-like activity of the compound using GSH/1.2 mM H2O2 as substrate assessed as GSH-mediated H2O2 reduction at 80 uM at pH 7.5 measured for 10 secs by spectrophotometric analysis. The class given is physicochemical. The conditions noted are these: pH 7.5, 10 s.
Series [13] is described as follows: GPx-like activity of the compound using GSH/0.8 mM H2O2 as substrate assessed as GSH-mediated H2O2 reduction at 80 uM at pH 7.5 measured for 10 secs by spectrophotometric analysis. In kind it is physicochemical. The conditions noted are these: pH 7.5, 10 s.
Series [14] in a line: GPx-like activity of the compound using GSH/1 mM H2O2 as substrate assessed as GSH-mediated H2O2 reduction at 80 uM at pH 7.5 measured for 10 secs by spectrophotometric analysis. The class given is physicochemical. Particulars: pH 7.5, 10 s.
A short description of series [15]: GPx-like activity of the compound using 2 mM GSH/H2O2 as substrate assessed as GSH-mediated H2O2 reduction at 80 uM at pH 7.5 measured for 10 secs by spectrophotometric analysis. In kind it is physicochemical. Particulars: pH 7.5, 10 s.
Series [16] can be described thus: GPx-like activity of the compound using 1.5 mM GSH/H2O2 as substrate assessed as GSH-mediated H2O2 reduction at 80 uM at pH 7.5 measured for 10 secs by spectrophotometric analysis. Particulars: pH 7.5, 10 s. The class given is physicochemical.
Series [17] can be described thus: GPx-like activity of the compound using GSH/1.6 mM H2O2 as substrate assessed as GSH-mediated H2O2 reduction at 80 uM at pH 7.5 measured for 10 secs by spectrophotometric analysis. The class given is physicochemical. The conditions noted are these: pH 7.5, 10 s.
Series [18] in a line: GPx-like activity of the compound using 3 mM GSH/H2O2 as substrate assessed as GSH-mediated H2O2 reduction at 80 uM at pH 7.5 measured for 10 secs by spectrophotometric analysis. The class given is physicochemical. Particulars: pH 7.5, 10 s.

For orientation: IC50 means the point on the concentration scale where inhibition reaches its midpoint. Higher therefore signals lower potency. A word on the Vmax: it is the rate approached at saturating substrate.

Active and inactive are the calls of the source. The rule behind the calls is not given here.

Chain of Cholinesterase (P81908 whole entry): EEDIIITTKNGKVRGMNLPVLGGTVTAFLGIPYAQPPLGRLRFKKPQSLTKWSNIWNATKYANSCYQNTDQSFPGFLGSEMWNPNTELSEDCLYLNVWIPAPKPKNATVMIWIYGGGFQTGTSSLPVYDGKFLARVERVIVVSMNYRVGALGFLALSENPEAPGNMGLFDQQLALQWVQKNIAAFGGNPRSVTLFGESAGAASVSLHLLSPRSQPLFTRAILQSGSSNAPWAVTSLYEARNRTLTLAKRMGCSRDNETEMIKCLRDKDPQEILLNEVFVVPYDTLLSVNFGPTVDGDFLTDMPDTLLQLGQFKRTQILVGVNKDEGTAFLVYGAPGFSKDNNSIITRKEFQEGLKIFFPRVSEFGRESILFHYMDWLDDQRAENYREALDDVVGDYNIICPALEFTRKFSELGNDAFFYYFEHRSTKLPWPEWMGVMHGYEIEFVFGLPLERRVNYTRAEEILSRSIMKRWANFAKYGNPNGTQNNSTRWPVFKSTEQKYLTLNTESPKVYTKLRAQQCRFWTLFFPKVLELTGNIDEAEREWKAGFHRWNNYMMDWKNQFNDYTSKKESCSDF
Chain of Acetylcholinesterase (Electrophorus electricus, UniProt O42275) (O42275 whole entry): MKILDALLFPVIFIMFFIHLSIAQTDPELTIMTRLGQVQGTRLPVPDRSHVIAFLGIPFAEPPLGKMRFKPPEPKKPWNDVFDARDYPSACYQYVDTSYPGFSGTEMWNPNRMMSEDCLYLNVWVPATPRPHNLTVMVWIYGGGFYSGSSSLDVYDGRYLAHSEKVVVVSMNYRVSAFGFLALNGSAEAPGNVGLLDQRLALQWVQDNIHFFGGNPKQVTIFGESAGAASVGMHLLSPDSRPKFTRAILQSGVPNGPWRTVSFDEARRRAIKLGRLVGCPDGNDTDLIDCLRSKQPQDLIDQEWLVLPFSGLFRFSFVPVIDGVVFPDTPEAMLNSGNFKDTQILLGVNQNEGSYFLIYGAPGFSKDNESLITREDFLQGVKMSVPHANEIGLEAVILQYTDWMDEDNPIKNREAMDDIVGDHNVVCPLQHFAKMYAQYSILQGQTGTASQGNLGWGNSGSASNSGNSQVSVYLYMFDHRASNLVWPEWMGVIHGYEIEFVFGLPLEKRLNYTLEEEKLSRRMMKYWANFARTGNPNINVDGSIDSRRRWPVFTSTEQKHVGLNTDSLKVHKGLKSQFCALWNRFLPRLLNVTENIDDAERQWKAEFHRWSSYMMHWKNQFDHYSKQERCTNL
Chain of Acetylcholinesterase (Homo sapiens, UniProt P22303) (P22303 whole entry): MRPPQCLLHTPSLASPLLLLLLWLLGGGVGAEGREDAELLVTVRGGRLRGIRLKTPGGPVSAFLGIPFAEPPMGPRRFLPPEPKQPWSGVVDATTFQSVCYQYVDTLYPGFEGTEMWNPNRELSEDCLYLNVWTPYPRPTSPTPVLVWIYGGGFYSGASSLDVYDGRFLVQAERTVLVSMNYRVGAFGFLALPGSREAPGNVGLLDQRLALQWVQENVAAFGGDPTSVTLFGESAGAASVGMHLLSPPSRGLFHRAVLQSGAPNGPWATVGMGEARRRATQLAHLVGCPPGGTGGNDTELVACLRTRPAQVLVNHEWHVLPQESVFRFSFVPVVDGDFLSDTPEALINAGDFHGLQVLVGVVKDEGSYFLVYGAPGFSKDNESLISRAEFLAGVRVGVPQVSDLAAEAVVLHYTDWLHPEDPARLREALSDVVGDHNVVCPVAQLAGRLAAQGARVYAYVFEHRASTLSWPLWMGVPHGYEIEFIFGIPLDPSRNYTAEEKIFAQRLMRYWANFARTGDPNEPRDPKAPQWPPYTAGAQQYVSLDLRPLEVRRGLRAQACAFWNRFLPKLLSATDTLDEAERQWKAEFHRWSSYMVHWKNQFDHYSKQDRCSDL

Take `O=c1c2ccccc2[se]n1-c1ccc(CCN2CCCC2)cc1`: the values for the 50% inhibitory concentration (IC50) in series [1], in [2] and in series [3] were 6.38 µM, more than 15 µM and more than 15 µM, respectively.

Regarding `COc1cc2[se]n(-c3ccc(OCCCCN4CCCCC4)cc3)c(=O)c2cc1OC`, the concentration for half-maximal inhibition (IC50) came out at 5.72 µM in series [1], 3.41 µM in series [2] and 4.32 µM in [3].

Consider `COc1cc2[se]n(-c3ccc(OCCCN4CCCCC4)cc3)c(=O)c2cc1OC`, for which the values for the IC50 in series [1], in [2] and in [3] were 5.8 µM, 5.15 µM and 4.5 µM, respectively.

Take `COc1cc2[se]n(-c3ccc(CN4CCCCC4)cc3)c(=O)c2cc1OC`: the Activity in [4] stood at 88.35 µM/min; in series [6] it was 1.45 mM⁻¹ min⁻¹; in series [7], 1.63 mM⁻¹ min⁻¹; in series [8], 185.66 µM/min; in series [11] it was 132.29 µM/min; in series [12], 121.72 µM/min. Further, the Activity in [13] turned out to be 81.43 µM/min; in [14] it was 109.44 µM/min; in series [15], 147.84 µM/min; in series [16], 130.27 µM/min; in [17], 150.53 µM/min; in [18], 166.44 µM/min. Moreover, the concentration for half-maximal inhibition (IC50) in series [1] was more than 15 µM; in series [2], 1.44 µM; in series [3], 0.76 µM. In addition, the Kcat in series [5] turned out to be 0.1812 s⁻¹; in [9] it was 0.0643 s⁻¹. Moreover, the results for the Vmax in series [5] and in [9] were 869.57 µM/min and 308.64 µM/min, respectively. Further, in series [10], the result was Active.

On to `O=c1c2ccccc2[se]n1-c1ccc(CN2CCCCC2)cc1`, for which the values for the IC50 in series [1], in [2] and in series [3] were 5.56 µM, 10.8 µM and 2.36 µM, respectively.

On to `COc1cc2[se]n(-c3ccc(OCCN4CCCCC4)cc3)c(=O)c2cc1OC`, for which the Activity was determined as 77.43 µM/min in series [4]; 0.74 mM⁻¹ min⁻¹ in [6]; 1.4 mM⁻¹ min⁻¹ in series [7]; 164.86 µM/min in series [8]; 109.83 µM/min in series [11]; 98.87 µM/min in series [12]. Moreover, the Activity in series [13] worked out at 53.36 µM/min; in series [14], 76.93 µM/min; in series [15], 126.72 µM/min; in series [16], 110.89 µM/min; in series [17], 122.64 µM/min; in series [18], 150.13 µM/min. In addition, the concentration for half-maximal inhibition (IC50) in series [1] is 9.69 µM; in series [2], 0.45 µM; in series [3], 0.46 µM. The results for the Kcat in series [5] and in series [9] were 0.066 s⁻¹ and 0.0577 s⁻¹, respectively. Further, the Vmax in series [5] was determined as 316.46 µM/min; in series [9] it was 276.24 µM/min. For the same compound, in series [10], the outcome was Active.

`O=c1c2ccccc2[se]n1-c1ccc(OCCN2CCCCC2)cc1`: the IC50 in [1] turned out to be 1.97 µM; in series [2] it was 10.9 µM; in series [3] it was 5.66 µM.

`COc1cc2[se]n(-c3ccc(CCN4CCCC4)cc3)c(=O)c2cc1OC`: the IC50 is more than 15 µM in [1], 13.9 µM in series [2] and 4.32 µM in series [3].

Consider `COc1cc2[se]n(-c3ccc(CCN4CCCCC4)cc3)c(=O)c2cc1OC`, for which the IC50 in series [1] is more than 15 µM; in series [2], 10.5 µM; in series [3], 3.87 µM.

Consider `COc1cc2[se]n(-c3ccc(CN(C)Cc4ccccc4)cc3)c(=O)c2cc1OC`, for which the IC50 in series [1] is 3.62 µM; in [2] it was more than 15 µM; in [3], 1.71 µM.

As to `COc1cc2[se]n(-c3ccc(CN4CCCC4)cc3)c(=O)c2cc1OC`, the IC50 in series [1] came to 13.4 µM; in series [2] it was 4.31 µM; in series [3] it was 1.06 µM.

As to `O=c1c2ccccc2[se]n1-c1ccccc1` [EBSELEN], the Activity in series [4] turned out to be 88.35 µM/min; in [6] it was 2.85 mM⁻¹ min⁻¹; in [7] it was 1.64 mM⁻¹ min⁻¹; in [8] it was 183.19 µM/min; in [11], 119.01 µM/min; in [12] it was 107.82 µM/min. Moreover, the Activity in [13] was found to be 92.43 µM/min; in [14] it was 105.89 µM/min; in [15], 152.18 µM/min; in series [16] it was 130.27 µM/min; in series [17] it was 125.93 µM/min; in series [18] it was 166.44 µM/min. The figures for the IC50 in [1], in [2] and in [3] were 10.6 µM, more than 15 µM and more than 15 µM, respectively. Further, the values for the Kcat in series [5] and in series [9] were 0.0393 s⁻¹ and 0.0642 s⁻¹, respectively. For the same compound, the maximal velocity (Vmax) in series [5] was 188.68 µM/min; in [9], 307.69 µM/min. Moreover, in [10], the result was Active.

These data come from ChEMBL document CHEMBL3112576, “Synthesis and biological evaluation of a new series of ebselen derivatives as glutathione peroxidase (GPx) mimics and cholinesterase inhibitors against Alzheimer's disease” (Bioorg Med Chem, 2014).
